Activity calls are given as the source filed them.
Assays:
[1] = target: T1, Short transient receptor potential channel 4 (Mus musculus, UniProt Q9QUQ5); test: mouse TRPC4 channel activators, dose response, cell-based, HEK293 TRPC4/mu-opioid, Fluo-4 calcium (AID 434937); assay type: functional
T1 sequence (Q9QUQ5 whole entry): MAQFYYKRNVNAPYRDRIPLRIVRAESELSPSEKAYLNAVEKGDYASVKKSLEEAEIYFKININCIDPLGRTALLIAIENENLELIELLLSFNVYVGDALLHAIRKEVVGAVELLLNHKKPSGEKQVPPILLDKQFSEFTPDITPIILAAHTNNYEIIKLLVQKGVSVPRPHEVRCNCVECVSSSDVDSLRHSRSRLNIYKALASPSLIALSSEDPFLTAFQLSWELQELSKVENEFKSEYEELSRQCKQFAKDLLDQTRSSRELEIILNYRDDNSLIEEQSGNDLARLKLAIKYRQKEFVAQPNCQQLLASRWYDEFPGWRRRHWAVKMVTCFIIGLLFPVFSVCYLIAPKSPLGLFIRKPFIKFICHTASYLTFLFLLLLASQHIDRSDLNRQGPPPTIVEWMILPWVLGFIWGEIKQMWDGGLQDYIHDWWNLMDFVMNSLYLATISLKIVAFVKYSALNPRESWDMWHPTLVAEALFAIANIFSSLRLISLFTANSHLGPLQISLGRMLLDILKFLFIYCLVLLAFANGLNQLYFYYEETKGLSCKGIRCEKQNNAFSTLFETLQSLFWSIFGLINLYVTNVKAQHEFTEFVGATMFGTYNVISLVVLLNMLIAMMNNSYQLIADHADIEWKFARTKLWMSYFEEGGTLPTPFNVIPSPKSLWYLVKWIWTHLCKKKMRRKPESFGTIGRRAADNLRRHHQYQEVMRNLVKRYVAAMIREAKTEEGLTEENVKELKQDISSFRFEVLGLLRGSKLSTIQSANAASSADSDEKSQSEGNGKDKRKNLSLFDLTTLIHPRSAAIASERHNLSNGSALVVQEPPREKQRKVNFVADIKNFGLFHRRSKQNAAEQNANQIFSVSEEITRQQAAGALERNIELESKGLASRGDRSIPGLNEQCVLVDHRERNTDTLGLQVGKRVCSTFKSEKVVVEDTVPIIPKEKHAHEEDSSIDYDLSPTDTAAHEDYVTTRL

[2] = Vero E6 cell cytotoxicity, dose response, cytotoxicity control for non-replicating M. tuberculosis project, secondary assay (AID 492998); assay type: functional, VeroE6; settings: Vero C1008
Streptococcus = test: Group A Streptococcus viability loss, dose response, counter-screen for streptokinase expression inhibitor project, luminescence, BacTiterGlo (AID 1915); assay type: functional, organism-based;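 further: potency for reduction of bacterial viability or growth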
[3] = THP-1 cell cytotoxicity, dose response, cytotoxicity control for non-replicating M. tuberculosis project (AID 489025); assay type: functional
cells = assay type: functional
[4] = system: Streptococcus sp. 'group A'; test: growth inhibition of control SK(-) GAS strain, dose response, counter-screen for streptokinase expression inhibitor project, luminescence, kanamycin, BacTiterGlo, confirmation (AID 1900); assay type: functional, organism-based
Streptokinase A = target: T2, Streptokinase A (Streptococcus pyogenes serotype M1, UniProt P10520); test: S. pyogenes streptokinase expression inhibitors, potency, dose response, plasminogen activation absorbance, OD405 (AID 1914); assay type: functional, Streptococcus pyogenes M1 GAS;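 further: secreted streptokinase activity via plasminogen activation per viability signal from cell pellet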
T2 sequence (P10520 whole entry): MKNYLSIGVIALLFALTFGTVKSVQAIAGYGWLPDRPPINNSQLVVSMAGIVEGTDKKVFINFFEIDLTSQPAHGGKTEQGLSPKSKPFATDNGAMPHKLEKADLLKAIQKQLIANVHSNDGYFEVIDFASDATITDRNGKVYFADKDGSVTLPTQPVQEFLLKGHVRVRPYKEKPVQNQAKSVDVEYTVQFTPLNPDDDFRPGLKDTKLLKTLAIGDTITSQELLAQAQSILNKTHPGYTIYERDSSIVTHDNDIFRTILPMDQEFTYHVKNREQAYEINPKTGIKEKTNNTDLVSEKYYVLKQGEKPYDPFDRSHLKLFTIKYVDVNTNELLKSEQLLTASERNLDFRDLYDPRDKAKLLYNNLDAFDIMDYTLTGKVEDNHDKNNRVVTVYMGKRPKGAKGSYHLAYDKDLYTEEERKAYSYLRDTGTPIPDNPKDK

[5] = target: Nucleotide-binding oligomerization domain-containing protein 2 (Homo sapiens, UniProt Q9HC29); test: NOD2 signaling inhibitors, cell-based, luminescence, uHTS, HEK293 (AID 1566); assay type: functional
HEK293 [6] = test: cells; assay type: functional, cell-based; settings: Homo sapiens
HEK293 [7] = test: NOD2 signaling inhibitors in MDP-stimulated cells, cell-based, uHTS, luminescence (AID 2001); assay type: functional; settings: Homo sapiens
[8] = inhibitors of intracellular T. cruzi replication, confirmation, NIH3T3 host cells, beta-gal luminescence (AID 2044); assay type: functional, cell-based;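 further: intracellular parasites grown in NIH/3T3 mouse fibroblasts as host cells; luminescent beta-galactosidase reporter signal from transgenic T. cruzi replicating inside host cells; inhibitors lower the luminescence signal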
HEK293 [9] = test: NOD1 signaling inhibitors, primary screen, cell-based, luminescence, uHTS (AID 1578); assay type: functional; settings: Homo sapiens
[10] = cytotoxicity toward NIH3T3 fibroblasts, dose response, counter-screen, cell-based, ATP luminescence, mouse fibroblasts (AID 2010); assay type: functional;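 further: cells exposed to compound for about 90 hours before reading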
HEK293 [11] = test: cells; assay type: functional, cell-based; settings: Homo sapiens; remark: listed apart in the source
[12] = HEp-2 cell cytotoxicity, dose response, cytotoxicity control for RSV inhibitor project, HTS (AID 2410); assay type: functional; settings: human respiratory syncytial virus
X-box-binding protein 1 = target: T3, X-box-binding protein 1 (Homo sapiens, UniProt P17861); assay type: functional, Cricetulus griseus;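 further: confirmatory dose-response counter-screen serving a CHOP assay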
T3 sequence (P17861 whole entry): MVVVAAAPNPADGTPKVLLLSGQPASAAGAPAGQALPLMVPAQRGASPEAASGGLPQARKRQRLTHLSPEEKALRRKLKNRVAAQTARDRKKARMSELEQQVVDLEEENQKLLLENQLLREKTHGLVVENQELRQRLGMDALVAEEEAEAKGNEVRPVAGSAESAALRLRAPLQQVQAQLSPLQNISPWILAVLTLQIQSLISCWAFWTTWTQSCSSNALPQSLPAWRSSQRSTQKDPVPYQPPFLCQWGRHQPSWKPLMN

Cytochrome P450 2C9 = Cytochrome P450 2C9 (Homo sapiens, UniProt P11712)
Cytochrome P450 2C9, sequence (P11712 whole entry): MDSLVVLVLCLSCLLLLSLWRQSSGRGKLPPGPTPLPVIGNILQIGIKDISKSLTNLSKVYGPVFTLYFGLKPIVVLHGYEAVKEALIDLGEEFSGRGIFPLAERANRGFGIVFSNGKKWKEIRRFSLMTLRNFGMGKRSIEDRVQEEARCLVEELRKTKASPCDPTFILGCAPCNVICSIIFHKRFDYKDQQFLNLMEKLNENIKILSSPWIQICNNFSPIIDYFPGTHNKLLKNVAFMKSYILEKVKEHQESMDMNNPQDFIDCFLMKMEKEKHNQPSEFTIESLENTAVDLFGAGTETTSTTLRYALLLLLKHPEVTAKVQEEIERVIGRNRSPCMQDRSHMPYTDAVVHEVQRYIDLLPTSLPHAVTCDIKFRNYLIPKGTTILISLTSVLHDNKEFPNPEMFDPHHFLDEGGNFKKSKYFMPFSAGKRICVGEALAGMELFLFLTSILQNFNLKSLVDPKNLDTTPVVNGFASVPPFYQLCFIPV

[13] = target: Peroxisome proliferator-activated receptor gamma/Nuclear receptor coactivator 2 (Homo sapiens, UniProt P37231); assay type: functional;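 further: agonist potency for raising coactivator recruitment to the receptor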
Peroxisome proliferator-activated receptor gamma/Nuclear receptor coactivator 2, sequence (P37231 whole entry): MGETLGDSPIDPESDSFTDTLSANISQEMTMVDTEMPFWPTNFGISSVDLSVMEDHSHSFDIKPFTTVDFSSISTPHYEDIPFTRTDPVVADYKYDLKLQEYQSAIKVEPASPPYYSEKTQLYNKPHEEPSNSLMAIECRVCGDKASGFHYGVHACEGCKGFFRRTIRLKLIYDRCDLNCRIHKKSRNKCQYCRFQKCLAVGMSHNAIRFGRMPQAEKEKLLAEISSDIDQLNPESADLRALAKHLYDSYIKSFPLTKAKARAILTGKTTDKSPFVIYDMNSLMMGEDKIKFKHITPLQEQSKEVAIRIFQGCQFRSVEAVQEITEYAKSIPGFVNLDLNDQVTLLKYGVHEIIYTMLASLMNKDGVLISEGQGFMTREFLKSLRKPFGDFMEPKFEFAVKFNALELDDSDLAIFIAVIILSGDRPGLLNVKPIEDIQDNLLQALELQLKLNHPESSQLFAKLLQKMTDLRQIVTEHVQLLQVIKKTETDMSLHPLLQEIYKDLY
Peroxisome proliferator-activated receptor gamma/Nuclear receptor coactivator 2, sequence (Q15596 whole entry, further chain): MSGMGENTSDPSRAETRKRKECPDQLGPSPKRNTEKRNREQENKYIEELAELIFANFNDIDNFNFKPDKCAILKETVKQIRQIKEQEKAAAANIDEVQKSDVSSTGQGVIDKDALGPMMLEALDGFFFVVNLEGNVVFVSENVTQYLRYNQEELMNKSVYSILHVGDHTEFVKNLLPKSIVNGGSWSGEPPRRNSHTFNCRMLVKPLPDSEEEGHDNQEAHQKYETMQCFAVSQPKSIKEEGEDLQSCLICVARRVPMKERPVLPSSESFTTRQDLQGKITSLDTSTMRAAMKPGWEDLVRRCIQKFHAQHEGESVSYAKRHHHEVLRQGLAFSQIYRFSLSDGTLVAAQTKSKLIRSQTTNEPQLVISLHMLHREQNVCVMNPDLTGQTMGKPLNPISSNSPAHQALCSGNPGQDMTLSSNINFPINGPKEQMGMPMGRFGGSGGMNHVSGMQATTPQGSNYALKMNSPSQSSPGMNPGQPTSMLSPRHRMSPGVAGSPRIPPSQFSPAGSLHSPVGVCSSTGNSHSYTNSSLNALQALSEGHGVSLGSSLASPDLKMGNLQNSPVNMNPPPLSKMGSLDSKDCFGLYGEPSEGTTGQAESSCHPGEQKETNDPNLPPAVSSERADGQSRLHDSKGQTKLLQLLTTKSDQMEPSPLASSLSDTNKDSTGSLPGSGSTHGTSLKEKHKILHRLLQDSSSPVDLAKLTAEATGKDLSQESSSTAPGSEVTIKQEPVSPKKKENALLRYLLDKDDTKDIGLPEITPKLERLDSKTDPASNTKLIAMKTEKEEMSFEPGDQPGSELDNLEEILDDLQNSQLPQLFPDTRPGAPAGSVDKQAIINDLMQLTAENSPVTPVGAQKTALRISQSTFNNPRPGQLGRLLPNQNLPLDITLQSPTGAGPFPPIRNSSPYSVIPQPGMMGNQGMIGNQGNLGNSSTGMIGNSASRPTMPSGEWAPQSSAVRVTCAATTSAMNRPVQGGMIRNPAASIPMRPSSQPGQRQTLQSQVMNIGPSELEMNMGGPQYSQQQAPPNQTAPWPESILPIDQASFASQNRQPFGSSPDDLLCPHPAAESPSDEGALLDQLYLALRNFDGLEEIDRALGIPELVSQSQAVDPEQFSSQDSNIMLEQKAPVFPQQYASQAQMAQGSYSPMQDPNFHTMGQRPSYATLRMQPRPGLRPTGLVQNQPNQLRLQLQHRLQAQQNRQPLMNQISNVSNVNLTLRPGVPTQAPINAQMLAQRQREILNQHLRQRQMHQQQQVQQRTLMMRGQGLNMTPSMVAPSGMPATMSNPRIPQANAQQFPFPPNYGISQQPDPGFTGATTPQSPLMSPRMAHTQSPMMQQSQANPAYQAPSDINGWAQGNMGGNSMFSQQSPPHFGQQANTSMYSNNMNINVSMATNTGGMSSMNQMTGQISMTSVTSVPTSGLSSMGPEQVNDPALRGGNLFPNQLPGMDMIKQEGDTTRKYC

[14] = target: Peroxisome proliferator-activated receptor gamma/Nuclear receptor coactivator 1 (Homo sapiens, UniProt P37231); assay type: functional;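 further: agonist potency as compounds enhance coactivator SRC-1 recruitment to PPARgamma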
Peroxisome proliferator-activated receptor gamma/Nuclear receptor coactivator 1, sequence (P37231 whole entry): as the sequence (P37231 whole entry) above
Peroxisome proliferator-activated receptor gamma/Nuclear receptor coactivator 1, sequence (Q15788 whole entry, further chain): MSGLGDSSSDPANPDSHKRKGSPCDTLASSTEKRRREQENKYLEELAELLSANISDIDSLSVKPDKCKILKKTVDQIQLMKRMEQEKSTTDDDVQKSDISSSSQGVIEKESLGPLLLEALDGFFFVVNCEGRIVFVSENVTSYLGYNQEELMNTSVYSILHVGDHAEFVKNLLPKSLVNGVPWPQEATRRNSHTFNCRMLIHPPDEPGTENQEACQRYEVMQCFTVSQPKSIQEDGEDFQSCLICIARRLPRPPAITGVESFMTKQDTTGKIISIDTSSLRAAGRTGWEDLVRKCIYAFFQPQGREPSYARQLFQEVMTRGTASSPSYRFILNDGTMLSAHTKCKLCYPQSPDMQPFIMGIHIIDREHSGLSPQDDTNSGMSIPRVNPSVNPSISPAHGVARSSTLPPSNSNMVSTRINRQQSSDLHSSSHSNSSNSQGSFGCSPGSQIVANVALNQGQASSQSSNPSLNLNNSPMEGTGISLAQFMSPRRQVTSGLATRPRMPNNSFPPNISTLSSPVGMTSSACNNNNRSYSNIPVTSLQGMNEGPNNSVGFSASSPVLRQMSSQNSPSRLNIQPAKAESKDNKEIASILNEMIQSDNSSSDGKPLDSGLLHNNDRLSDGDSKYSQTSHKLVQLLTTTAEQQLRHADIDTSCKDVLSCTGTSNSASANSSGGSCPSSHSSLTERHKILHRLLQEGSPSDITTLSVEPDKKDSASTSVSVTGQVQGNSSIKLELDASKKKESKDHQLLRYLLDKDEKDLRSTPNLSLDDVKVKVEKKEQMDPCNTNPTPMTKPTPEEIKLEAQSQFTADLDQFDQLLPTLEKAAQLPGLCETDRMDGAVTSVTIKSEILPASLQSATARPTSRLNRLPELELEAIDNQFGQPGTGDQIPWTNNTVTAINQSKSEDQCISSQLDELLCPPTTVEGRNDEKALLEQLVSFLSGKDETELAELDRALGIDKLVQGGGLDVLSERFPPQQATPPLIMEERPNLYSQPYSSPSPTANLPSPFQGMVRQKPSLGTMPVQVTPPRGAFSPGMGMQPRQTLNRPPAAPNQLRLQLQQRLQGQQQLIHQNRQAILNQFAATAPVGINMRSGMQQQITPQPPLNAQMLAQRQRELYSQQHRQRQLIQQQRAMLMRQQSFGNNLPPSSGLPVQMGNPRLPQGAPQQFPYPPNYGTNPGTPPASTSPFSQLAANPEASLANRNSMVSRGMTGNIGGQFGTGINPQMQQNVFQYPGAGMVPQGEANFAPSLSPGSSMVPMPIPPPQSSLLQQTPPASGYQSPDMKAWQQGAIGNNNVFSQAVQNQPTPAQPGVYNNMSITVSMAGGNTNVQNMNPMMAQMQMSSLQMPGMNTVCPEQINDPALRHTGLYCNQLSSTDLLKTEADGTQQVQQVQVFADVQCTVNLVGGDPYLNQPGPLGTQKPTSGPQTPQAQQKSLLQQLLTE

[15] = target: Induced myeloid leukemia cell differentiation protein Mcl-1 (Homo sapiens, UniProt Q07820); assay type: functional
Induced myeloid leukemia cell differentiation protein Mcl-1, sequence (Q07820 whole entry): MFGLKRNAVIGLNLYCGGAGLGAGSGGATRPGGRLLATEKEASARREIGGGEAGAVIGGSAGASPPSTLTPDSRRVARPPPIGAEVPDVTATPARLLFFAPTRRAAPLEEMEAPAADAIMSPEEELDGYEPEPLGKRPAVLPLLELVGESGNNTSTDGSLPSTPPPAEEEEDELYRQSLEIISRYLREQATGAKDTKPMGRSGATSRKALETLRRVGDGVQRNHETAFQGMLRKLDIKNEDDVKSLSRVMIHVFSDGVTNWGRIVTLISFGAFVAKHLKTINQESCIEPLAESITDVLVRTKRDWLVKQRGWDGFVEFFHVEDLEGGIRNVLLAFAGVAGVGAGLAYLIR

[16] = target: Peroxisome proliferator-activated receptor gamma/Nuclear receptor coactivator 3 (Homo sapiens, UniProt P37231); assay type: functional;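 further: agonist potency for raising coactivator recruitment to the receptor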
[17] = target: T4, Voltage-gated N-type calcium channel alpha-1B subunit/Amyloid beta A4 precursor protein-binding family A member 1 (Homo sapiens, UniProt Q00975+Q02410); assay type: protein assay
[18] = target: T4, Voltage-gated N-type calcium channel alpha-1B subunit/Amyloid beta A4 precursor protein-binding family A member 1; assay type: protein assay; remark: listed apart in the source
Aminopeptidase N = target: T5, Aminopeptidase N (Plasmodium falciparum FcB1/Columbia, UniProt O96935); test: P. falciparum M1AAP inhibitors, biochemical, fluorogenic H-Leu-NHMec substrate, 1536-well (AID 1445); set-up: species or system Plasmodium falciparum 3D7, 3D7
T5 sequence (O96935 whole entry): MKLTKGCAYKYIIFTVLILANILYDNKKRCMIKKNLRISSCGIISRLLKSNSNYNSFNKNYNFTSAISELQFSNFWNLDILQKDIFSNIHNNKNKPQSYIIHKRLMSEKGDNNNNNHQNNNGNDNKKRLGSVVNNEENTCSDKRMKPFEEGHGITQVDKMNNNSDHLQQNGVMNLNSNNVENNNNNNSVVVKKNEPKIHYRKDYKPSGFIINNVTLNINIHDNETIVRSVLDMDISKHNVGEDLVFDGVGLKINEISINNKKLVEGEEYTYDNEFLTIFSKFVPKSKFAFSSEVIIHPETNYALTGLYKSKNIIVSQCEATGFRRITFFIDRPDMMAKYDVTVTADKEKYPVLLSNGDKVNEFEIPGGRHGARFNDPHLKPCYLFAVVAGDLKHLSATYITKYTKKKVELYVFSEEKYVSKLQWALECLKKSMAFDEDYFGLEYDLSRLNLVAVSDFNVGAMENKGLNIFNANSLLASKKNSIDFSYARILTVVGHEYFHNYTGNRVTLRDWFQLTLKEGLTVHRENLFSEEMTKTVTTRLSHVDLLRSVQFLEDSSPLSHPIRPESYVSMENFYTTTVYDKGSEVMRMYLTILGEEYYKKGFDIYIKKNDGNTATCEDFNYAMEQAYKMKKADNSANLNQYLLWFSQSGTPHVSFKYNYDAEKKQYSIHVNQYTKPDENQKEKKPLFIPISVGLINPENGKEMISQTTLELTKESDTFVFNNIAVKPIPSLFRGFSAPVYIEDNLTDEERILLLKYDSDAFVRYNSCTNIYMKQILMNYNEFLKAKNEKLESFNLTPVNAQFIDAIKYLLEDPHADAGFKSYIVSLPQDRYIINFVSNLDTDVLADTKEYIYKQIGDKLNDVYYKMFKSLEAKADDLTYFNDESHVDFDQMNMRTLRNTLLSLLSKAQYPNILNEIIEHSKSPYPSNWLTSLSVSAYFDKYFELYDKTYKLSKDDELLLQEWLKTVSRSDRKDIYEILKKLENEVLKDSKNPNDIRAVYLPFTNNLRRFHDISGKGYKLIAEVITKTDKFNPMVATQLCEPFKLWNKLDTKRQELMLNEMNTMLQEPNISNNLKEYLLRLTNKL

[19] = Luminescence Cell-Based Dose Response HTS to Identify Activators of Luciferase Translation or Activity in H4 […] Cells. [Related pubchem assays: 1829 (Project Summary), 1814 (Primary HTS)]; assay type: functional
[20] = Luminescence Cell-Based Dose Confirmation HTS to Identify Activators of 5'UTR Stem-Loop Driven Alpha-Synuclein mRNA Translation in H4 Neuroglioblastoma Cells. [Related pubchem assays: 1829 (Project Summary), 1814 (Primary HTS)]; assay type: functional
H4 = test: Luminescence Cell-Based Dose Response HTS to Identify Activators of 5'UTR Stem-Loop Driven Prion Protein mRNA Translation in H4 Neuroglioblastoma Cells. [Related pubchem assays: 1829 (Project Summary), 1814 (Primary HTS)]; assay type: functional; settings: Homo sapiens
Cytochrome P450 2C19 = Cytochrome P450 2C19 (Homo sapiens, UniProt P33261); test: Cytochrome panel assay with activity outcomes. Panel member name: p450-cyp2c19 Compounds with AC50 equal or less than 10 uM are considered active; assay type: functional

## Cc1cc(NC(=O)CN2CCc3ccccc3C2)nc2c1c(=O)oc1ccccc12
[1]
  EC50: 1.19 µM (active)

## CN(CCc1nc2cc(Cl)ccc2[nH]1)Cc1nc(CC2CC2)no1
[1]
  EC50: 5.31 µM (active)

## O=C(CC(=O)c1cc(Cl)ccc1O)c1ccccc1
[2]
  CC50: 8.73 µM (active)
Streptococcus
  EC50: 10.8 µM (active)
[3]
  CC50: 14.6 µM (active)
cells
  IC50: 9.73 µM (active)
[4]
  EC50: 1.08 µM (active)
Streptokinase A
  EC50: > 150 µM (not active)

## CCc1cccc(CC)c1N=C(S)NCC(c1cccnc1)N(C)C (stereo unspecified)
[1]
  EC50: 0.168 µM (active)

## O=S(=O)(c1ccc(Cl)cc1)N1CCN2CCCC2C1 (stereo unspecified)
[1]
  EC50: 4.73 µM (active)

## COc1cc(OC)c(OC)cc1/C=C1\CCC/C(=C\c2cc(OC)c(OC)cc2OC)C1=O
[5]
  EC50: 13 µM (active)
HEK293 [6]
  IC50: 18.1 µM (active)
HEK293 [7]
  IC50: 6.27 µM (active)
[8]
  EC50: 1.51 µM (active)
HEK293 [9]
  EC50: 15.5 µM (active)
[10]
  EC50: 6.67 µM (active)
HEK293 [11]
  IC50: 5.03 µM (active)

## Fc1ccc(-c2nn(-c3ccccc3)cc2CNCc2ccccc2)cc1
[3]
  CC50: 26 µM (active)
[1]
  EC50: 5.31 µM (active)
[12]
  CC50: 17.9 µM (active)
cells
  IC50: 21.6 µM (active)
X-box-binding protein 1
  Absolute IC50 (XBP1): 10 µM

## COCCn1c(=O)c(C)nc2cnc(N3CCN(C)CC3)nc21
Cytochrome P450 2C9
  AC50: inconclusive

## Cc1ccc(C(=O)Nc2ccc(N3CCCC3)cc2)cc1
[13]
  EC50: > 79.4 µM (not active)
[14]
  EC50: > 79.4 µM (not active)
[15]
  IC50: 17.9 µM (not active)
[16]
  EC50: > 79.4 µM (not active)

## O=C(Nc1nc2ccccc2[nH]1)c1cccc(Cl)c1
[2]
  CC50: > 20 µM (active)
Streptococcus
  EC50: 69.4 µM (active)
[3]
  CC50: > 40 µM (active)
cells
  IC50: 7.11 µM (active)
[4]
  EC50: 8.88 µM (active)
Streptokinase A
  EC50: > 150 µM (not active)

## CCc1ccccc1N=C(S)NCc1ccc2c(c1)OCO2
Cytochrome P450 2C9
  AC50: inconclusive

## O=c1c2ccccc2nc(-c2ccccc2)n1CCCN1CCOCC1
[13]
  EC50: > 79.4 µM (not active)
[14]
  EC50: > 79.4 µM (not active)
[16]
  EC50: > 79.4 µM (not active)

## O=C(NCc1ccco1)c1ccc(Cl)nc1
[17]
  IC50: 26.5 µM (active)
[18]
  IC50: > 50 µM (inactive)

## CN1CCN(NS(=O)(=O)c2cccs2)CC1
[17]
  IC50: 51.3 µM (active)
[18]
  IC50: > 50 µM (inactive)

## COc1ccc(C(=O)Nc2cccc(/C=C(\CCC(=O)O)c3nc4ccccc4s3)c2)cc1
Streptococcus
  EC50: 22.9 µM (active)
[15]
  IC50: 4.32 µM (active)
[4]
  EC50: 7.83 µM (active)
Aminopeptidase N
  IC50: 21.8 µM (active)
Streptokinase A
  EC50: > 50 µM (not active)
[17]
  IC50: 4.28 µM (active)
[18]
  IC50: > 50 µM (inactive)

## Cn1c(=O)c(C(=O)NC2CCCCCCC2)c(O)c2ccccc21
[13]
  EC50: 69.1 µM (not active)
[14]
  EC50: > 79.4 µM (not active)
[19]
  EC50: 22.8 µM (active)
[20]
  EC50: 15.6 µM (active)
H4
  EC50: > 120 µM (not active)
[16]
  EC50: > 79.4 µM (not active)

## CCCC12CN3CC(CCC)(CN(C1)C3C(O)C(O)C(O)CO)C2=O (stereo unspecified)
Cytochrome P450 2C9
  AC50: inconclusive
Cytochrome P450 2C19
  AC50: inconclusive
